Results from patent publication US4251546A, “Process for killing internal helminths using certain 1,1-bis-(2-substituted-3-nitrophenyl)alkane or alkylene derivatives” (ICI Australia Limited, priority 1977, dated 1981).

Experiments:
[1] = system: live Fasciola hepatica; experiment: Minimum effective concentration against live Fasciola hepatica in Hedon-Fleig medium (Table 4); conditions: in vitro, assessed 24 hours after treatment, read-out: MINIMUM EFFECTIVE CONCENTRATION (minimum concentration required to kill Fasciola hepatica)
Experimental: The minimum effective concentration of compounds of formula I against live Fasciola hepatica was tested by the direct application of the test compound, in solution, to live Fasciola hepatica in Hedon-Fleig medium. The results are given in Table 4 where the minimum effective concentration (minimum concentration required to kill Fasciola hepatica) was assessed 24 hours after treatment with the test compound.

[2] = system: sheep liver fluke (Fasciola hepatica); experiment: Fluke egg count in faeces and adult fluke count in liver of infected sheep after a single s/c dose (Table 3); assay type: in vivo; conditions: for POST MORTEM RESULT No. of adult fluke: liver
Experimental: Compositions suitable for use as experimental injectable solutions were prepared by formulating the compounds as solutions of their salts either in water or in a mixture of water and ethylene glycol or water and polyethylene glycol (PEG200).
Compositions prepared by the method of Example 10 were used as a single dose to test sheep infected with sheep liver fluke (Fasciola hepatica). The number of liver fluke eggs in the faeces was measured at the time of treatment and at selected intervals up to 30 days after treatment. The sheep were killed and the number of adult fluke in the liver counted. The amount and structure of the active ingredient in each composition and the results of treatment of a sheep with that composition are given in the Table 3 below. The compositions were administered by sub-cutaneous injection (s/c).

O=[N+]([O-])c1cc(Cl)cc(C(Oc2cccc(F)c2)c2cc(Cl)cc([N+](=O)[O-])c2O)c1O [Compound 34]
minimal effective concentration [1]: 5 µg/mL

O=[N+]([O-])c1cc(Cl)cc(C(Oc2ccc(F)cc2)c2cc(Cl)cc([N+](=O)[O-])c2O)c1O [Compound 35]
minimal effective concentration [1]: 5 µg/mL

CC(OC(c1cc(Cl)cc([N+](=O)[O-])c1O)c1cc(Cl)cc([N+](=O)[O-])c1O)c1ccccc1 (stereo not drawn) [Compound 36]
minimal effective concentration [1]: 1 µg/mL

O=[N+]([O-])c1cc(Cl)cc(C(OCc2cccc(F)c2)c2cc(Cl)cc([N+](=O)[O-])c2O)c1O [Compound 37]
FAECAL EGG COUNT, day 7 ([2]; single dose 6.0 mg/kg): 0 Eggs/g faeces | FAECAL EGG COUNT, day 14 ([2]; single dose 6.0 mg/kg): 0 Eggs/g faeces | POST MORTEM RESULT No. of adult fluke ([2]; single dose 6.0 mg/kg): 2

O=[N+]([O-])c1cc(Cl)cc(C(OCc2ccc(Cl)cc2)c2cc(Cl)cc([N+](=O)[O-])c2O)c1O [Compound 38]
minimal effective concentration [1]: 1 µg/mL

O=[N+]([O-])c1cccc(COC(c2cc(Cl)cc([N+](=O)[O-])c2O)c2cc(Cl)cc([N+](=O)[O-])c2O)c1 [Compound 39]
minimal effective concentration [1]: 0.5 µg/mL

O=[N+]([O-])c1cc(Cl)cc(C(OCc2ccc(F)cc2)c2cc(Cl)cc([N+](=O)[O-])c2O)c1O [Compound 40]
FAECAL EGG COUNT, day 7 ([2]; single dose 2.0 mg/kg): 0 Eggs/g faeces | FAECAL EGG COUNT, day 14 ([2]; single dose 2.0 mg/kg): 130 Eggs/g faeces | FAECAL EGG COUNT, day 7 ([2]; single dose 6.0 mg/kg): 0 Eggs/g faeces | FAECAL EGG COUNT, day 14 ([2]; single dose 6.0 mg/kg): 0 Eggs/g faeces | POST MORTEM RESULT No. of adult fluke ([2]; single dose 6.0 mg/kg): 0

O=[N+]([O-])c1cc(Cl)cc(C(OCc2cc(Cl)cc(Cl)c2)c2cc(Cl)cc([N+](=O)[O-])c2O)c1O [Compound 41]
minimal effective concentration [1]: 10 µg/mL

O=[N+]([O-])c1cc(Cl)cc(C(OCCC(c2ccccc2)c2ccccc2)c2cc(Cl)cc([N+](=O)[O-])c2O)c1O [Compound 42]
minimal effective concentration [1]: 1 µg/mL

COc1cc(Cl)ccc1COC(c1cc(Cl)cc([N+](=O)[O-])c1O)c1cc(Cl)cc([N+](=O)[O-])c1O [Compound 43]
minimal effective concentration [1]: 5 µg/mL

CC(=O)Nc1ccc(OC(c2cc(Cl)cc([N+](=O)[O-])c2O)c2cc(Cl)cc([N+](=O)[O-])c2O)cc1 [Compound 44]
minimal effective concentration [1]: 5 µg/mL

CCCSC(c1cc(Cl)cc([N+](=O)[O-])c1O)c1cc(Cl)cc([N+](=O)[O-])c1O [Compound 45]
FAECAL EGG COUNT, day 7 ([2]; single dose 12.0 mg/kg): 10 Eggs/g faeces | FAECAL EGG COUNT, day 14 ([2]; single dose 12.0 mg/kg): 0 Eggs/g faeces | POST MORTEM RESULT No. of adult fluke ([2]; single dose 12.0 mg/kg): 1

CC(C)(C)SC(c1cc(Cl)cc([N+](=O)[O-])c1O)c1cc(Cl)cc([N+](=O)[O-])c1O [Compound 46]
minimal effective concentration [1]: 0.5 µg/mL

CCC(C)SC(c1cc(Cl)cc([N+](=O)[O-])c1O)c1cc(Cl)cc([N+](=O)[O-])c1O (stereo not drawn) [Compound 47]
FAECAL EGG COUNT, day 7 ([2]; single dose 12.0 mg/kg): 10 Eggs/g faeces | FAECAL EGG COUNT, day 14 ([2]; single dose 12.0 mg/kg): 30 Eggs/g faeces

COc1ccc(CSC(c2cc(Cl)cc([N+](=O)[O-])c2O)c2cc(Cl)cc([N+](=O)[O-])c2O)cc1 [Compound 48]
minimal effective concentration [1]: 1 µg/mL

O=[N+]([O-])c1cc(Cl)cc(C(Sc2ccccc2)c2cc(Cl)cc([N+](=O)[O-])c2O)c1O [Compound 50]
FAECAL EGG COUNT, day 7 ([2]; single dose 12.0 mg/kg): 100 Eggs/g faeces | FAECAL EGG COUNT, day 14 ([2]; single dose 12.0 mg/kg): 0 Eggs/g faeces | POST MORTEM RESULT No. of adult fluke ([2]; single dose 12.0 mg/kg): 0

O=[N+]([O-])c1cc(Cl)cc(C(Sc2ccc(Cl)cc2)c2cc(Cl)cc([N+](=O)[O-])c2O)c1O [Compound 51]
FAECAL EGG COUNT, day 7 ([2]; single dose 12.0 mg/kg): 10 Eggs/g faeces | FAECAL EGG COUNT, day 14 ([2]; single dose 12.0 mg/kg): 0 Eggs/g faeces | POST MORTEM RESULT No. of adult fluke ([2]; single dose 12.0 mg/kg): 0

O=[N+]([O-])c1cc(Cl)cc(C(c2cc(Cl)cc([N+](=O)[O-])c2O)C(F)(F)C(F)(F)C(F)(F)F)c1O [Compound 55]
FAECAL EGG COUNT, day 7 ([2]; single dose 2.0 mg/kg): 20 Eggs/g faeces | FAECAL EGG COUNT, day 14 ([2]; single dose 2.0 mg/kg): 0 Eggs/g faeces | POST MORTEM RESULT No. of adult fluke ([2]; single dose 2.0 mg/kg): 1 | FAECAL EGG COUNT, day 7 ([2]; single dose 6.0 mg/kg): 50 Eggs/g faeces | FAECAL EGG COUNT, day 14 ([2]; single dose 6.0 mg/kg): 20 Eggs/g faeces | POST MORTEM RESULT No. of adult fluke ([2]; single dose 6.0 mg/kg): 0
